Data taken from article PMC4615937 (FEBS Open Bio, 2015).
Numbering of substitutions follows the chain as printed.

Key:
Assay type in all cases: binding
[1] = biological target: T1, wild-type mALAS2 (murine erythroid 5-aminolevulinate synthase) (Mus musculus, UniProt P08680); assay: intrinsic protein fluorescence quenching titration
T1 sequence (P08680 79-587): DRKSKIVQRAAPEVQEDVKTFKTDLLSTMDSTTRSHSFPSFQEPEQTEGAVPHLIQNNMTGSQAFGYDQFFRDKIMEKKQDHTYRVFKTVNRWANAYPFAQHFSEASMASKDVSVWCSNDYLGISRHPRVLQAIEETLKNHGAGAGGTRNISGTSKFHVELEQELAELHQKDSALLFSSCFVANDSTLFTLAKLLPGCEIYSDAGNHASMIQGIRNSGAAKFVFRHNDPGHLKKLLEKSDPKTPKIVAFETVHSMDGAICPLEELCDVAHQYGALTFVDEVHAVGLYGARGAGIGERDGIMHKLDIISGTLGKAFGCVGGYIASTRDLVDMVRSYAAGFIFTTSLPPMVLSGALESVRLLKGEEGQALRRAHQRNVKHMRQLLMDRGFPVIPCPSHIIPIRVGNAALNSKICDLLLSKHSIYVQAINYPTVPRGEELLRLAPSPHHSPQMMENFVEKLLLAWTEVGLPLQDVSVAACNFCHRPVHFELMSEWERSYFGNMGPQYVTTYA

[2] = biological target: T2, wild-type mALAS2 (murine erythroid 5-aminolevulinate synthase) (Mus musculus, UniProt P08680, K299V); assay: intrinsic protein fluorescence quenching titration
T2 sequence (P08680 79-587 K299V): T1 sequence (P08680 79-587) with K221V

[3] = biological target: T1, wild-type mALAS2 (murine erythroid 5-aminolevulinate synthase); details: half-maximal protection; 50 mM phosphate pH 7.5, 10% glycerol, 18 °C; no glycine

Row | Kd [1] [µM] | Kd [2] [µM] | K′ [3] [µM] | Structure (SMILES)
1 | 302 ± 12 | 431 ± 17 | – | CC(C)(COP(=O)(O)OP(=O)(O)OC[C@H]1O[C@@H](n2cnc3c(N)ncnc32)[C@H](O)[C@@H]1OP(=O)(O)O)[C@@H](O)C(=O)NCCC(=O)NCCS [CoA]
2 | 297 ± 7 | 223 ± 8 | 261 ± 75 | CC(C)(COP(=O)(O)OP(=O)(O)OC[C@H]1O[C@@H](n2cnc3c(N)ncnc32)[C@H](O)[C@@H]1OP(=O)(O)O)[C@@H](O)C(=O)NCCC(=O)NCCSC(=O)CCC(=O)O [succinyl-CoA]
